Data set [1] addresses T1, p75^NTR-Fc (Homo sapiens, UniProt P08138).
T1 construct: purchased R&D Systems
To be noted: read-out: KD for NGF, previous reports; Nykjaer et al. 2004; cited from earlier work.

Data set [2] concerns the target T1, p75^NTR-Fc. The data set can be described thus: NGF/p75NTR-Fc binding by NGF ELISA, Gaddum/Schild fit. To be noted: read-out: KD for NGF; in the absence of compounds. On the procedure: (§1) Briefly, 96-well plates were incubated with 0.1 pmol (at 1 nM) of p75/Fc or TrkA/Fc recombinant protein obtained from R&D System (Minneapolis, Minn., United States of America) overnight at 4° C. followed by incubation with blocking buffer for 1 hour at room temperature. […] Plates were then washed five times with Tris-buffered saline (TBS) containing 0.05% Tween-20 and incubated with anti-NGF rabbit polyclonal antibody overnight at 4° C. Following five washes with TBS, wells were incubated for 2.5 hours at room temperature with anti-rabbit IgG HRP conjugate and washed five times. 3,3′,5,5′-tetramethyl-benzidine substrate was added and the optical density measured at 450 nm.
A regression analysis of NGF-p75^NTR binding in the presence of the p75-binding compounds was performed. The data was fit using the Nonlinear Regression module of Sigmaplot, to a modification of the Gaddum/Schild equation (adapted from Motulsky, H. J., and Christopoulos. A. (2003) A Practical Guide to Curve Fitting, 2nd edn. (San Diego, Calif., GraphPad Software, Inc.): […]

The subject of a further data set is ERK42. In words: ERK42 activation western blot in hippocampal cultures. Type of data set: cell-based, mouse. The note with it: compounds 20 nM, BDNF/NGF 50 ng/ml; 10 and 30 min. As for the experimental part:
(§2) For assays of Trk, AKT, NFκB, and ERK activation, hippocampal neurons derived from E16-17 mice were cultured in poly-L-lysine coated six-well plates (Corning, Inc., Corning, N.Y., United States of America) in DMEM containing 10% FBS, followed by incubation in serum-free DMEM for 2 hours before addition of neurotrophins or compounds. At the indicated time points, neurons were harvested in lysis buffer consisting of: 20 mM Tris, pH 8.0, 137 mM NaCl, 1% Igepal CA-630, 10% glycerol, 1 mM PMSF, 10 μg/ml aprotinin, 1 μg/ml leupeptin, 500 μM orthovanadate (Zhou, J., Valletta, J. S., Grimes, M. L., Mobley, W. C. (1995) J Neurochem 65, 1146-1156).
(§3) Lysates were centrifuged, the supernatant collected, and protein concentrations determined using the BCA Protein Assay Reagent obtained from Pierce (Rockford, Ill., United States of America). Western blots were performed as described previously (Yang, T. et al. (2003) J Neurosci 23, 3353-3363). Western blot signals were detected using the ECL Chemiluminescence System obtained by Amersham (Piscataway, N.J., United States of America) (Yang, T. et al. (2003) J Neurosci 23, 3353-3363).

The test system of another data set is E17 hippocampal neurons. In words: Aβ-induced death of hippocampal neurons. It counts as cell-based. The note with it: Aβ1-42 10 μM; NGF at 100 pg/ml. As for the experimental part: Using previously well established protocols, Aβ was preincubated for 3 days in water to allow formation of oligomers. E17 hippocampal neurons were incubated for 5 days to allow for maturation prior to addition of Aβ with test compounds.

Data set [3] deals with hippocampal neurons. The data set can be described thus: Hippocampal neuron survival with signaling pathway inhibitors. Type of data set: cell-based, mouse. To be noted: PD98059 50 μM; BDNF/NGF 25 ng/ml, compounds 5 nM; 48 h. On the procedure: (§4) Hippocampal neurons were prepared from E16-17 mouse embryos as previously described (Yang. T. et al. (2003) J Neurosci 23, 3353-3363). […] For studies employing p75^NTR+/+ and p75^NTR−/− neurons, mice carrying a mutation in exon 3 of the p75^NTR gene (Lee, K. F. et al. (1992) Cell 69, 737-749) were bred onto a B6 congenic background (>10 B6 backcrosses).
(§5) After 48 hours in culture, cell survival was assessed as previously described (Longo, F. M., Manthorpe. M., Xie. Y. M., Varon, S. (1997) J Neurosci Res 48, 1-17) using a combination of standard morphological criteria along with visual determination of whether a given cell converted MTT to its blue formazan product. The number of surviving neurons was determined by counting the total number of cells in each well that were both morphologically intact and filed with blue product (Longo F. M., Manthorpe. M., Xie, Y. M., Varon, S. (1997) J Neurosci Res 48, 1-17). For each neurotrophin or compound concentration, duplicate wells were counted and the resulting values averaged. Activity of each compound was confirmed by blinded counts. Counts were normalized to survival achieved with 25 ng/ml BDNF or to baseline survival. Fitting of dose-responsive curves was performed with Sigmaplot obtained from SYSTAT Software Inc. (Richmond, Calif., United States of America).
(§6) For all studies applying signaling inhibitors, p75^NTR antibodies or p75^NTR−/− neurons, survival was assessed at 48 hours.

The next data set relates to p75^NTR−/− cells. In words: Survival of p75NTR+/+ versus p75NTR-/- hippocampal neurons. Type of data set: cell-based, mouse. To be noted: neurotrophins 1.8 nM, compounds 5 nM. As for the experimental part: as §4, §5, §6
The next data set addresses T2, TrkB (Mus musculus, UniProt P15209).
T2 construct: endogenous in cells; host or cells: primary hippocampal neurons from E16-17 mouse embryos
In words: Trk Y490 phosphorylation western blot in hippocampal neuron cultures. To be noted: 10 or 30 minutes. Type of data set: cell-based. On the procedure: as §2, §3

The next data set deals with AKT. The data set can be described thus: AKT activation western blot in hippocampal cultures. Type of data set: cell-based, mouse. The note with it: p75NTR−/− neurons, versus culture medium alone. On the procedure:
as §2, §3

The subject of the next data set is NFκB-p65. The data set can be described thus: NFκB-p65 phosphorylation western blot in hippocampal cultures. To be noted: compounds 20 nM, BDNF/NGF 50 ng/ml; 10 and 30 min. Type of data set: cell-based, mouse. As for the experimental part: as §2, §3
The next data set concerns TrkA-Fc. In words: NGF/TrkA-Fc binding by NGF ELISA. The note with it: up to 10,000 nM compound. On the procedure:
as §1

For data set [4], the target named is T3, p75^NTR-expressing 3T3 cells (Homo sapiens, UniProt P08138).
T3 construct: host or cells: NIH3T3 fibroblasts
T3 sequence (P08138 29-427): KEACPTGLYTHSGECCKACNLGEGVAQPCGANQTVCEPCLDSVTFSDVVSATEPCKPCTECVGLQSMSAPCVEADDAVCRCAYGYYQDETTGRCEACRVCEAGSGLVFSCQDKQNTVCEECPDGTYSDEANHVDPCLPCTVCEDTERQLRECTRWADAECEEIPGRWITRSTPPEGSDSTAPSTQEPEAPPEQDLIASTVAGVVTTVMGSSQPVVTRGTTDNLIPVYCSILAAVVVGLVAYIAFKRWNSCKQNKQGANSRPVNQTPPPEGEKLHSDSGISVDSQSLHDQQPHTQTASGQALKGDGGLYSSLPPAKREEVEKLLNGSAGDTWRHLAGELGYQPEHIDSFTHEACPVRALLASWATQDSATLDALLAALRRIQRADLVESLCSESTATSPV
The data set can be described thus: p75NTR antibody (Ab 9651) competition on 3T3 cells, western blot. Type of data set: binding. To be noted: 100 nM compound, 90 min, 4° C. As for the experimental part:
NIH3T3 fibroblasts expressing either null vector or p75^NTR (Huang, C. S. et al. (1999) J Biol Chem 274, 36707-36714) were obtained from Dr. William Mobley (Stanford University, Calif., United States of America). Cells were grown in monolayers, harvested in PBS with 2 mM EDTA, pelleted, and resuspended in ice-cold DMEM HEPES with 1 mg/ml BSA. 6-9×10^6 cells from one confluent 6-well plate were used for each experimental point.
For binding analysis, p75^NTR antibody (1:100) was allowed to bind in the presence or absence of 100 nM p75-binding compounds for 90 minutes at 4° C. with gentle rotation, followed by four washes in PBS. The final cell pellet was resuspended in lysis buffer.
Western blots were performed as described above. To detect the presence of p75^NTR antibody, blots were probed with horseradish peroxidase-linked goat anti-rabbit IgG obtained from Amersham/Pharmacia Biotech (Piscataway, N.J., United States of America). Signals were detected by the ECL chemiluminescence system obtained from Amersham Biosciences (Piscataway, […]., United States of America). To control for variation in protein loading, the blot was stripped and reprobed with β-actin monoclonal antibody obtained from Sigma (St. Louis, Mo., United States of America).

The subject of another data set is mature oligodendrocytes. The data set can be described thus: Oligodendrocyte cell death assay (MBP/TUNEL) with or without proNGF. Type of data set: cell-based, rat. As for the experimental part:
Cortical oligondendrocytes from rat pups were prepared as previously described (Yoon et al. (1998) J Neurosci 18, 3273-3281, Harrington, A. W., Kim, J. Y., Yoon, S. O. (2002) J Neurosci 22, 156-166). Cells were treated with recombinant, cleavage-resistant proNGF at 0.05 nM (2.8 ng/ml). Controls were treated with equivalent volumes of proNGF purification buffer containing 350 mM imidazole. 24 hours after treatment, the cells were fixed and processed for MBP and TUNEL staining as previously described (Beattie, M. S. et al. (2002) Neuron 36, 375-386). 200-250 cells were counted per well, for a minimum of 600 cells per experimental condition.

Data set [5] deals with hippocampal neurons. In words: Hippocampal neuron survival with p75NTR antisera (antibody inhibition). It counts as cell-based, mouse. To be noted: antiserum 1:100, 48 h. As for the experimental part: as §4, §5, §6
The test system of data set [6] is E16-17 mouse hippocampal neurons. In words: Hippocampal neuron survival (morphology plus MTT conversion). Type of data set: cell-based. To be noted: 48 h; counts normalized to 25 ng/ml BDNF or baseline; up to 5 nM. As for the experimental part: as §4, §5

“Also recorded” adds a separate entry of the source. Where two headings read alike, the source gives them in different places.

T1 sequence (P08138 with tags, fused parts or gaps limits assumed): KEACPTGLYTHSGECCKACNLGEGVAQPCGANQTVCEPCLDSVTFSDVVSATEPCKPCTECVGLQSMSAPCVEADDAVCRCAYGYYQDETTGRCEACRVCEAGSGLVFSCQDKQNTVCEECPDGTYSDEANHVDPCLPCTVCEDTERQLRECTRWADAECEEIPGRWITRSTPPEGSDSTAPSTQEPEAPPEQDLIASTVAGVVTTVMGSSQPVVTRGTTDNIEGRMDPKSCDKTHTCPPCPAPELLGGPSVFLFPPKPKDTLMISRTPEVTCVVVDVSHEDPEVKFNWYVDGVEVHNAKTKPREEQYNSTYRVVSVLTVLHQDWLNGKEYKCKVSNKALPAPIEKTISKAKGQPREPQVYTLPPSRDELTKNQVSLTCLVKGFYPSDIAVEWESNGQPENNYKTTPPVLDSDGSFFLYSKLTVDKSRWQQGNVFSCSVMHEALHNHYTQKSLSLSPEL
T2 sequence (P15209 32-821): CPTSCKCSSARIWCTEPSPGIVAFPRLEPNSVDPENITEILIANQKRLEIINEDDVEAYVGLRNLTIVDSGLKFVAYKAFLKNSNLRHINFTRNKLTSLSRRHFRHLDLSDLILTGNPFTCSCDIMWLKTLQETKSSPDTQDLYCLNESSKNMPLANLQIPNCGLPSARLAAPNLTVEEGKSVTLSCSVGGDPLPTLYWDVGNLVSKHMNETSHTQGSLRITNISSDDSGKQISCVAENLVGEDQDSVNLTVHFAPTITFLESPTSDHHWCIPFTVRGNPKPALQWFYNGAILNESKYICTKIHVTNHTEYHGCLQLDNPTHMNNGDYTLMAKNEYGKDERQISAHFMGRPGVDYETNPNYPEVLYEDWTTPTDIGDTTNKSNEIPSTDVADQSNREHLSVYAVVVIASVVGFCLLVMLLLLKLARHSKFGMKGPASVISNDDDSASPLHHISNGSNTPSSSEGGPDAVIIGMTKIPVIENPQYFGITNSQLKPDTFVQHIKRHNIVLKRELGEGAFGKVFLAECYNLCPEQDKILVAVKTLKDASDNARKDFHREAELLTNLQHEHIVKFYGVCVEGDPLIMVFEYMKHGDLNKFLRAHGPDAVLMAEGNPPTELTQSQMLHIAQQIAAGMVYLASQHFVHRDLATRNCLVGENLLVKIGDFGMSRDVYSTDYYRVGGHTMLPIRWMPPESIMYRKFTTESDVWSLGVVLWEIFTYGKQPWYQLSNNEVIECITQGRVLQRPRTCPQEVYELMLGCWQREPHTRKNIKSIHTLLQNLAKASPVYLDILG

As to “NGF: Recombinant human NGF obtained from Invitrogen”, the Kd with p75^NTR-Fc [1] is ~1 nM; with p75^NTR-Fc [2] it was 0.8 to 0.9 nM. The ERK42 activation entry in the data set with ERK42 is “greater with BDNF and NGF treatment than with the p75-binding compounds”. Besides, in the data set on E17 hippocampal neurons, the “protection against Aβ1-42-induced death” value is “fails to protect; also recorded: did not protect”. For the same compound, the “effect of PD98059 (ERK inhibitor) on survival promoted by the substance” value in the data set with hippocampal neurons [3] is recorded as “small but significant effect; also recorded: small effects”. Also, the “effect of p75NTR-deficiency on promotion of neuron survival by the substance” value in the data set on p75^NTR−/− cells was “lack of response; also recorded: completely inhibits”. Also, the “TrkB activation (Trk Y490 phosphorylation)” value in the data set with TrkB is “no activation was detected”. The “AKT activation in p75NTR−/− cells” value with AKT is “completely absent”.

Turning to `CCN(CC)CCCNC(=O)Cn1cnc2c1c(=O)n(C)c(=O)n2C` [Compound 5], in the data set on NFκB-p65, the NFκB-p65 activation result is “did not induce”. Moreover, in the data set with TrkA-Fc, the “effect on NGF binding to TrkA-Fc” value is on record as “no significant effect up to 10,000 nM”. Also, in data set [4], the “displacement of anti-p75NTR Ab 9651” value is on record as “no effect”. Moreover, the “protection against Aβ1-42-induced death” value with E17 hippocampal neurons is “failed to block”. Besides, the “oligodendrocyte survival with proNGF at 10 nM compound” value with mature oligodendrocytes (10 nM compound, proNGF present) is “appeared to decrease survival”. Further, the “promotion of oligodendrocyte cell death by compound alone” value with mature oligodendrocytes (absence of proNGF, 24 h) is reported as “did not promote cell death”. Further, the “survival versus CM in the presence of Ab 9651” value with hippocampal neurons [5] is recorded as “not significant”. Moreover, the “neurotrophic activity (neuron survival response)” value in data set [6] is on record as “little or no neurotrophic activity; also recorded: no response”.

The record behind these values is patent US7723328B2, “Methods of facilitating cell survival using neurotrophin mimetics” (The University of North Carolina at Chapel Hill, priority 2005, dated 2010).
